# Assay results taken from patent publication US20200247855A1, “THERAPY AND DIAGNOSTICS” (OXFORD UNIVERSITY INNOVATION LIMITED, priority 2017, published 2020).
# Residues, ends and D or L forms follow the SMILES beside them. No end group written: not given here. *: point of attachment. FITC = O=C1OC2(c3ccc(O)cc3Oc3cc(O)ccc32)c2ccc(NC(=S)*)cc21
# Assays:
# CCL8 = target: T1, CCL8 (Homo sapiens, UniProt P80075); assay: Fluorescence polarisation (anisotropy) assay; assay type: binding; settings: labelled peptide 50 nM, CCL8 1 μM
# T1 construct: SUMO (in-house protein only) (cleaved yes); made in house; host or cells: Escherichia coli RosettaGami 2 (DE3)
# T1 sequence (P80075 24-99): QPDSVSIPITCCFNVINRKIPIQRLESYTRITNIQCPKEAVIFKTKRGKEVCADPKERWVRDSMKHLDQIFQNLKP
# From the text: FIG. 14. Characterisation of P672_PEP-FITC by fluorescence polarisation. […] Residue C30 was mutated to A to avoid an unpaired cysteine residue. The residues corresponding to the above peptide are wholly contained within the CCL8-binding region of P672_RHIPU transferred in the hybrid evasin P672:EVA1 (SEQ ID 76, see FIG. 5). […] (SEQ ID NO: 90). FIG. 14(A). […] The curve was fitted to the two site-total and non-specific binding model in GraphPad Prism 6. Data are shown as mean and SEM of three independent experiments, with each independent experiment performed as three technical replicates. The affinity constant Kd was calculated in GraphPad Prism from the curve fit with the standard error reported.
# FIG. 14(B). […] The measured fluorescence anisotropy (y-axis) of P672_PEP-FITC (50 nM) following binding to a fixed dose (1 μM)) of CCL7, CCL8, CCL18 and CXCL1 (negative control). […] Statistical significance was determined using one-way ANOVA with Sidak's correction for multiple comparisons using Graph Pad Prism 6. **=p<0.005, ****=P<0.00005, ns=not significant.
# FIG. 15(C). […] In each case 100 μM (++) or […] (+) of P672_PEP was incubated with P672_PEP-FITC (50 nM)/chemokine (1 μM CCL7 and CCL18; 500 nM CCL8) and the resulting anisotropy measured. […] Experiment carried out in triplicate where each data point is the average of one experiment carried out in technical triplicate. Mean with SEM shown and statistical significance was determined using one-way ANOVA with Sidak's correction for multiple comparisons using Graph Pad Prism 6. *=p<0.05, ***=p<0.0005, ****=P<0.00005, ns=not significant.
# Fluorescence polarization assays were performed using a Clariostar (BMG Tech) plate reader with the supplied FITC excitation and emission filters using 96 half area well plates (Corning). The buffer used (FP assay buffer) was 50 mM HEPES, 150 mM NaCl, 0.1% BSA, 0.002% TWEEN-20, 0.2% DMSO, pH 7.4 and the final volume in each well was 30 μL. Polarization was converted to anisotropy using the equation A=(2*P)/(3−P) where P is polarization and A is anisotropy. For each peptide tested the gain was set to 35 mP and adjusted to a well containing fluorescent peptide only. The polarization of the emitted light in the FITC emission channel was then determined. Experiments were performed as two technical and three biological replicates. Screening of P672 peptide fragments was achieved through incubation of each peptide (50 nM) with 1 μM CCL8 (Peprotech) for 30 minutes in FP assay buffer and the resulting anisotropy of the emitted light determined as above. The chemokine cross binding screen was performed by incubating 1 μM chemokine (Peprotech) with 50 nM BK1.1FITC for half an hour in FP assay buffer and the resulting anisotropy of the emitted light determined as above. […] The anisotropy was plotted as a function of CCL8 concentration and fitted to the equation: Y=Bmax*X/(KD+X)+NS*X+Background, where Y is the measured anisotropy, X is the concentration of CCL8 added, Bmax is the maximum binding, KD is the equilibrium dissociation constant, NS is the slope of the nonlinear regression and Background is the anisotropy when no CCL8 is present, in Graph Pad Prism. Displacement assays were carried out with CCL7, CCL8, and CCL18 (Peprotech, 1 μM). […] For all FP assays, the experiments were carried out as two technical and three biological replicates.
# CCL18 = target: T2, CCL18 (Homo sapiens, UniProt P55774); assay: Fluorescence polarisation (anisotropy) assay; assay type: binding; settings: labelled peptide 50 nM, chemokine 1 μM
# T2 construct: purchased Peprotech
# T2 sequence (P55774 21-89): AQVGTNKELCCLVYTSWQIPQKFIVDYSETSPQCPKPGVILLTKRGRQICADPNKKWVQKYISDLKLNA
# Experimental: (§1) FIG. 14(B). Fluorescence polarisation assay showing binding of chemokines to P672_PEP-FITC. The measured fluorescence anisotropy (y-axis) of P672_PEP-FITC (50 nM) following binding to a fixed dose (1 μM)) of CCL7, CCL8, CCL18 and CXCL1 (negative control). […] Statistical significance was determined using one-way ANOVA with Sidak's correction for multiple comparisons using Graph Pad Prism 6. **=p<0.005, ****=P<0.00005, ns=not significant.
# (§2) FIG. 15(C). Displacement of P672_PEP-FITC from CCL18 by P672_PEP. In each case 100 μM (++) or […] (+) of P672_PEP was incubated with P672_PEP-FITC (50 nM)/chemokine (1 μM CCL7 and CCL18; 500 nM CCL8) and the resulting anisotropy measured. A peptide with the P672_PEP sequence scrambled ([…]) served as a negative control (P672_PEP_SCRAM; […]). Experiment carried out in triplicate where each data point is the average of one experiment carried out in technical triplicate. Mean with SEM shown and statistical significance was determined using one-way ANOVA with Sidak's correction for multiple comparisons using Graph Pad Prism 6. *=p<0.05, ***=p<0.0005, ****=P<0.00005, ns=not significant.
# (§3) Fluorescence polarization assays were performed using a Clariostar (BMG Tech) plate reader with the supplied FITC excitation and emission filters using 96 half area well plates (Corning). The buffer used (FP assay buffer) was 50 mM HEPES, 150 mM NaCl, 0.1% BSA, 0.002% TWEEN-20, 0.2% DMSO, pH 7.4 and the final volume in each well was 30 μL. Polarization was converted to anisotropy using the equation A=(2*P)/(3−P) where P is polarization and A is anisotropy. For each peptide tested the gain was set to 35 mP and adjusted to a well containing fluorescent peptide only. The polarization of the emitted light in the FITC emission channel was then determined. Experiments were performed as two technical and three biological replicates. Screening of P672 peptide fragments was achieved through incubation of each peptide (50 nM) with 1 μM CCL8 (Peprotech) for 30 minutes in FP assay buffer and the resulting anisotropy of the emitted light determined as above. The chemokine cross binding screen was performed by incubating 1 μM chemokine (Peprotech) with 50 nM BK1.1FITC for half an hour in FP assay buffer and the resulting anisotropy of the emitted light determined as above. To monitor BK1.1FITC Ala mutants of binding to CCL8, 50 nM labelled peptide was incubated with varying concentrations of recombinant CCL8 (0-25 μM, final) in 30 μL FP assay buffer for 30 minutes and the resulting anisotropy of the emitted light determined as above. The anisotropy was plotted as a function of CCL8 concentration and fitted to the equation: Y=Bmax*X/(KD+X)+NS*X+Background, where Y is the measured anisotropy, X is the concentration of CCL8 added, Bmax is the maximum binding, KD is the equilibrium dissociation constant, NS is the slope of the nonlinear regression and Background is the anisotropy when no CCL8 is present, in Graph Pad Prism. Displacement assays were carried out with CCL7, CCL8, and CCL18 (Peprotech, 1 μM). […] For all FP assays, the experiments were carried out as two technical and three biological replicates.
# CCL7 = target: T3, CCL7 (Homo sapiens, UniProt P80098); assay: Fluorescence polarisation (anisotropy) assay; assay type: binding; settings: labelled peptide 50 nM, chemokine 1 μM
# T3 construct: purchased Peprotech
# Experimental: as §1, §2, §3
# CXCL1 = target: T4, CXCL1 (Homo sapiens, UniProt P09341); assay: Fluorescence polarisation (anisotropy) assay; assay type: binding; settings: labelled peptide 50 nM, chemokine 1 μM; negative control chemokine
# T4 sequence (P09341 35-107): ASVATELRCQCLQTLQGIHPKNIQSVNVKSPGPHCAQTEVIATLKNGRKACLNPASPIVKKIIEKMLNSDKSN
# Experimental: as §1
# Fluorescence polarization assays were performed using a Clariostar (BMG Tech) plate reader with the supplied FITC excitation and emission filters using 96 half area well plates (Corning). The buffer used (FP assay buffer) was 50 mM HEPES, 150 mM NaCl, 0.1% BSA, 0.002% TWEEN-20, 0.2% DMSO, pH 7.4 and the final volume in each well was 30 μL. […] The polarization of the emitted light in the FITC emission channel was then determined. […] Screening of P672 peptide fragments was achieved through incubation of each peptide (50 nM) with 1 μM CCL8 (Peprotech) for 30 minutes in FP assay buffer and the resulting anisotropy of the emitted light determined as above. The chemokine cross binding screen was performed by incubating 1 μM chemokine (Peprotech) with 50 nM BK1.1FITC for half an hour in FP assay buffer and the resulting anisotropy of the emitted light determined as above. […]
# [1] = tested on: human CCL5 together with CXCL8, CXCL1, CCL3 or CCL2; assay: Biolayer interferometry polyvalent binding (association with CCL5, then CCL5 plus second chemokine); settings: BLI, wavelength shift in association 2
# From the text: FIG. 10. Polyvalent binding of CC and CXC chemokines to two-warhead evasins. […] This was followed by association with CCL5+CXCL8 (light grey trace), or with CCL5+CXCL1 (dark grey trace) or CCL5+CCL3 (black trace) (association 2), and then dissociated in buffer (dissociation).
# FIG. 11. Polyvalent binding of CC and CXC chemokines to two-warhead evasins. […] This was followed by association with CCL5+CXCL8 (light grey trace), or with CCL5+CXCL1 (dark grey trace) or CCL5+CCL2 (black trace) (association 2), and then dissociated in buffer (dissociation).
# The ability of 2-warhead evasins to engage in polyvalent binding of CC and CXC chemokines was further determined.
# [2] = target: T5, His-tagged P672-biotinylated CCL2 interaction (Homo sapiens, UniProt P13500); assay: AlphaScreen disruption of P672:chemokine interaction; assay type: binding; settings: AlphaScreen, peptide 100 μM
# T5 construct: host or cells: P672: HEK293F (in-house); biotinylated CCL2: not described
# Experimental: (§4) B-D. Effect of indicated peptides at a concentration of 100 μM on a His-tagged P672-biotinylated CCL8, CCL2 or CCL3 interaction respectively using an AlphaScreen assay. In each panel. […] Data are presented as mean±s.e.m. of three independent experiments, shown as individual data points.
# (§5) Data are shown as mean of two technical replicates. Curves were fitted with 4 parameters to estimate IC50.
# (§6) The binding of these peptides to CCL8 was assayed by examining their ability to disrupt the P672:CCL8 interaction using an AlphaScreen assay (FIG. 20E, H). […] BK1 derivatives were tested for their ability to inhibit P672 interactions with CCL2 and CCL3 using AlphaScreen (FIG. 20 F, G, I, J).
# (§7) AlphaScreen® Histidine detection kit was purchased from PerkinElmer (6760619M lot: 2457886) and the assay was set up in white bottom Proxiplate™ 384 Plus microplates (PerkinElmer) following the manufacturer's instructions. The assay buffer used was 50 mM HEPES, 150 mM NaCl, 0.1% BSA, 0.01% Tween20, 1% DMSO, pH 7.5 and the final volume in each well was 20 μL. Briefly, biotinylated chemokine (recombinant, final concentration 1.25 nM (CCL8), 5 nM (CCL2) and 2.5 nM (CCL3)) was pre-incubated at room temperature for 15 min with different concentrations of each peptide. His-tagged P672 (final concentration 2.5 nM (CCL8), 5 nM (CCL2) and 1.25 nM (CCL3)) was then added to each well and the plate was incubated at room temperature for 30 min. Finally, acceptor and donor beads were added as a 1:1 suspension in buffer to each well and the plate was further incubated at RT for 1 h. Data was obtained by reading the plate using a Pherastar FSX plate reader (excitation 680 nm, emission 570 nm) and was analysed using GraphPad Prism.
# [3] = target: T6, His-tagged P672-biotinylated CCL3 interaction (Homo sapiens, UniProt P10147); assay: as above; assay type: binding; settings: AlphaScreen, peptide 100 μM
# T6 construct: host or cells: P672: HEK293F (in-house); biotinylated CCL3: not described
# T6 sequence (P10147 24-92): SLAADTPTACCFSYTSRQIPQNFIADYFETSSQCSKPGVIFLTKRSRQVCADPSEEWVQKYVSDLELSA
# Experimental: as §4, §5, §6, §7
# [4] = target: T7, His-tagged P672-biotinylated CCL8 interaction (Homo sapiens, UniProt P80075); assay: as above; assay type: binding; settings: peptide 100 μM
# T7 construct: SUMO (cleaved yes); biotin (enzymatic, BirA co-expression); made in house; host or cells: CCL8: Escherichia coli RosettaGami 2 (DE3); P672: HEK293F
# T7 sequence (P80075 24-99): T1 sequence (P80075 24-99)
# Experimental: as §4, §5, §6, §7
# T3 sequence (P80098 24-99): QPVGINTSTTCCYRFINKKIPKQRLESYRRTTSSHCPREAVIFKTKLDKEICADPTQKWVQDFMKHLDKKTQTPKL
# T5 sequence (P13500 24-99): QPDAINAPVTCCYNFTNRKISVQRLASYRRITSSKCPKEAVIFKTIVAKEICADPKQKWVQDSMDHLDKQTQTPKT
# Chain of human CCL5 together with CXCL8, CXCL1, CCL3 or CCL2 (P13501 24-91): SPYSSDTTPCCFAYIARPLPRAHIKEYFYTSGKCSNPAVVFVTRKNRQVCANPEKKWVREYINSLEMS
compound,measurement,setting,value
CC(C)[C@H](NC(=O)[C@@H]1CCCN1C(=O)[C@H](CCCCN)NC(=O)[C@H](Cc1ccccc1)NC(=O)[C@H](Cc1ccccc1)NC(=O)[C@H](CC(=O)O)NC(=O)[C@H](CCC(=O)O)NC(=O)[C@H](Cc1ccc(O)cc1)NC(=O)[C@H](CC(=O)O)NC(=O)[C@H](CCC(=O)O)NC(=O)[C@H](CC(=O)O)NC(=O)[C@H](CCC(=O)O)NC(=S)Nc1ccc2c(c1)C(=O)OC21c2ccc(O)cc2Oc2cc(O)ccc21)C(=O)N[C@H](C(=O)N[C@@H](C)C(=O)N[C@@H](Cc1ccc(O)cc1)C(=O)N[C@@H](Cc1ccccc1)C(N)=O)[C@@H](C)O [BK1.1FITC] ({FITC}-EDEDYEDFFKPVTAYF-NH2),Binding to CCL8 (change in anisotropy),CCL8,significant increase in anisotropy
same,Binding to CCL8 (change in anisotropy),CCL8; listed as BK1.1FTC,increase in anisotropy
same,Binding to CCL8 (change in anisotropy),CCL8; listed as P672_PEP-FITC,able to bind
same,Binding to CCL18 (change in anisotropy),CCL18,significant increase in anisotropy
same,Binding to CCL18 (change in anisotropy),CCL18; listed as P672_PEP-FITC,able to bind
same,Binding to CCL7 (change in anisotropy),CCL7,significant increase in anisotropy
same,Binding to CCL7 (change in anisotropy),CCL7; listed as P672_PEP-FITC,able to bind
same,Binding to CXCL1 (change in anisotropy),CXCL1,not
P1243:P1156: two-warhead evasin: P1243_AMBAM linked via GGGGS linker to P1156_IXORI,Polyvalent (simultaneous) binding of CC and CXC chemokines,[1],can associate simultaneously with CCL5 and either CXCL8 or CXCL1
Y21F32: shorter peptide Y21-F32 of P672 without the C30A mutation (YEDFFKPVTCYF-NH2),Disruption of the P672-CCL2 interaction,[2],disrupted
same,Disruption of the P672-CCL3 interaction,[3],disrupted
same,Disruption of the P672-CCL8 interaction,[4],significantly disrupt
